Laboratory results: patent US20090081192A1, “METHODS OF SCREENING FOR COMPOUNDS HAVING ANTI-INFLAMMATORY ACTIVITY” (FIBREX MEDICAL RESEARCH & DEVELOPMENT GMBH, priority 2007, published 2009)
Marks after values point to notes of the source that are not given here.

Legend:
Format in all cases: cell-based, human
[1] = system: Rac1; experiment: Rac1 activation pull-down assay in HUVECs; conditions: HUVEC, substance alone, test compound 50 μg/ml
Excerpt: (§1) The useful methods of analysing the activation status of Rac1 and RhoA are based on the principle of the so-called pull down assay. In this format, the GTP-bound active state of the respective protein in a cell lysate is bound to an immobilized binding partner and detected with a monoclonal antibody (MAb) specifically directed against the protein in question. The amount of the GTP-bound active state can subsequently be quantified through suitable detection methods, including but not limited to Western blotting or luminescence detection.
The lysate is added to a suitably immobilized p21-binding domain (PBD) of p21-activated protein kinase (PAK) and the amount of activated Rac1 is quantified with a Rac1-specific MAb.
HUVECs are grown to confluence under standard conditions. Before induction of Rac1 activity HUVECs were starved for 4 h by using IMDM (Gibco) without growth factor and serum supplements. Rac1 activity is induced by adding 50 μg/ml of test compound into starvation medium for 1, 5 and 10 min. Active Rac1 was isolated using Rac1/Cdc42 Assay Reagent from Upstate according to manufactures instructions. Isolates were separated on a 15% polyacrylamid gel and blotted on Nitrocellulose-Membranes (Bio-Rad). Rac1 was detected by using Anti-Rac1 clone23A8, anti-mouse from Upstate (1:250).

[2] = system: RhoA; experiment: Thrombin induced RhoA activation pull-down assay in HUVEC; conditions: substance alone, thrombin 5 U/ml
Excerpt: as §1
The lysate is added to a suitably immobilized rhotekin-binding domain (RBD) and the signal measured with an appropriate detection method.
HUVEC are grown to confluence under standard conditions. Before induction of Rho activity HUVEC were starved for 4 h by using IMDM (Gibco) without growth factor and serum supplements. After the starvation period 5 U/ml Thrombin (Calbiochem) or 5 U thrombin plus 50 μg/ml of test compound are added to the starvation medium for 1, 5 and 10 min. Active RhoA was isolated using Rho Assay Reagent from Upstate according to manufactures instructions. Isolates were separated on a 15% polyacrylamid gel and blotted on Nitrocellulose-Membrane (Bio-Rad). RhoA was detected by using Anti-Rho (-A, -B, -C), clone55 from Upstate (1:500).

[3] = system: FAK; experiment: Thrombin induced FAK phosphorylation at autophosphorylation site Tyr397 in HUVEC (immunoprecipitation / western blot); conditions: substance alone, compound 50 μg/ml, thrombin 1 U/ml
Experimental: For measuring the inhibition of thrombin meditated FAK phosphorylation in HUVECs, the cells are incubated under suitable conditions with a suitable amount of thrombin with and without the test compound for various periods of time up to 60 min and lysed afterwards lysates were subjected to SDS-PAGE and western blot analysis with site-specific antibodies directed against FAK phosphorylated tyrosine residues.
HUVEC were incubated with FX06 (50 μg/ml), Thrombin (1 U/ml, Sigma Aldrich) and Thrombin/test compound for indicated time points. After washing with ice cold PBS (GIBCO), cells were scrapped in Tris-lysis buffer (plus 1% Triton X (Bio-Rad), NP40 (Sigma Aldrich) and proteinase and phosphatase inhibitory cocktails (Sigma Aldrich)) from culture flasks and lysed for 20 min on ice. Lysates were heavily vortexed every 5 min. After lysis lysates were centrifuged (15.000 rpm/10 min/4° C.) and supernatants were added to 50 μl sepahrose beads (Sigma Aldrich) preincubated with 1 μg total FAK antibody (BD Transduction Laboratories). Beads were agitated on the wheel for 2 h at 4° C., followed by 3 times washing with ice cold PBS, the addition of 2× sample buffer and incubation at 95° C. for 5 min. The sample buffer was then removed from the beads and applied to western blotting.
10% polyacrylamide gels were run for separating precipitated proteins. Gels were blotted onto PVDF (Bio-Rad) membranes using the hoefer semi dry blotting system. Membranes were then washed with TBS/0.5% TWEEN (TBST), blocked with 1% BSA/TBST for 1 h at RT and then incubated with the p397 FAK antibody (0.2 μg/ml; BD Transduction Laboratories) in 1% BSA/TBST over night at 4° C. For detection, a HRP-labeled goat anti-mouse Ab (1:25 000; Bio-Rad) in TBST was used and bound Abs were visualized by chemiluminescence (ECL-system, Amersham Corp., Arlington Heights, Ill.) and recorded on film.

## thrombin
[1]; 1 min
  Active Rac1, relative values compared to unstimulated control: 0.5 +/− 0.2*
[1]; 5 min
  Active Rac1, relative values compared to unstimulated control: 0.5 +/− 0.2*
[1]; 10 min
  Active Rac1, relative values compared to unstimulated control: 1 +/− 0.1
[2]; 1 min
  Active RhoA, relative values compared to unstimulated control: 2.5 +/− 0.2*
[2]; 5 min
  Active RhoA, relative values compared to unstimulated control: 2.5 +/− 0.2*
[2]; 10 min
  Active RhoA, relative values compared to unstimulated control: 1 +/− 0.2
[3]; 1 min
  FAK phosphorylation (p397), relative values compared to unstimulated control: 4.5 +/− 0.2*
[3]; 5 min
  FAK phosphorylation (p397), relative values compared to unstimulated control: 4.5 +/− 0.2*
[3]; 10 min
  FAK phosphorylation (p397), relative values compared to unstimulated control: 3.8 +/− 0.1*
